The record followed here is ChEMBL document CHEMBL1126968, “Synthesis and biological evaluation of some 25,26-epoxy-1,24-dihydroxyvitamin D3 analogues” (1993).

The structures appear in SMILES notation.

The target in test [1] is T1, Vitamin D3 receptor (Sus scrofa) (UniProt A3RGC1).
T1 sequence (whole entry): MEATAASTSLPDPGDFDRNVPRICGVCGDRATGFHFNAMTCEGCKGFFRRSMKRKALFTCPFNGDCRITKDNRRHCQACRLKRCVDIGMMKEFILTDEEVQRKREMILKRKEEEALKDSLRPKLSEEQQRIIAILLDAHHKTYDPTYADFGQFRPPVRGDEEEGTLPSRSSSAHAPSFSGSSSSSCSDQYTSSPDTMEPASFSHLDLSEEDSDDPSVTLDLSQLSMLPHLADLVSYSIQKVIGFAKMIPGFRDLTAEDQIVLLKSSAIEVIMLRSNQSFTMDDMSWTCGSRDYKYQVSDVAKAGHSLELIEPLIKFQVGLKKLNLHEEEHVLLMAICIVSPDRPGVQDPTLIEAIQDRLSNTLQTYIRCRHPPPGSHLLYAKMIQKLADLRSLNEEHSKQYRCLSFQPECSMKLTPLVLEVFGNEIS
In words: Inhibition of [3H]1-alpha,25-dihydroxy-vitamin D3 binding to porcine intestinal mucosal vitamin D receptor.

The subject of the next test is HL-60. Nature of the test: Percent activity for its capability to induce differentiation of human promyeloid leukemia HL-60 cells. Further details: concentration or dose not given beside the values. In kind it is functional.

`C=C1/C(=C\C=C2/CCC[C@]3(C)[C@@H]([C@H](C)CC[C@H](O)[C@]4(C)CO4)CC[C@@H]23)C[C@@H](O)C[C@@H]1O` displayed a Receptor binding in test [1] of 5. The molecule also registered an Activity in the test with HL-60 of 7%.

`C=C1/C(=C\C=C2/CCC[C@]3(C)[C@@H]([C@H](C)CC[C@@H](O)[C@]4(C)CO4)CC[C@@H]23)C[C@@H](O)C[C@@H]1O` yielded a Receptor binding in test [1] of 9. Further, the Activity in the test with HL-60 is given as 33%.

The molecule `C=C1/C(=C\C=C2/CCC[C@]3(C)[C@@H]([C@H](C)/C=C/[C@@H](O)[C@@]4(C)CO4)CC[C@@H]23)C[C@@H](O)C[C@@H]1O` came in with a Receptor binding in test [1] of 8. The Activity with HL-60 is 30%.

On to `C=C1/C(=C\C=C2/CCC[C@]3(C)[C@@H]([C@H](C)/C=C/[C@H](O)[C@]4(C)CO4)CC[C@@H]23)C[C@@H](O)C[C@@H]1O`, for which, in test [1], the Receptor binding amounted to 8. Moreover, the Activity in the test on HL-60 came to 30%.

Molecule `C=C1/C(=C\C=C2/CCC[C@]3(C)[C@@H]([C@H](C)CC[C@H](O)[C@@]4(C)CO4)CC[C@@H]23)C[C@@H](O)C[C@@H]1O` showed a Receptor binding in test [1] of 1. In the test with HL-60, the Activity is listed as 44%.

`C=C1/C(=C\C=C2/CCC[C@]3(C)[C@@H]([C@H](C)CCCC4(C)CO4)CC[C@@H]23)C[C@@H](O)C[C@@H]1O` (some centres undefined) yielded a Receptor binding in test [1] of 27. This molecule showed an Activity in the test on HL-60 of 37%.

In test [1], `C=C1/C(=C\C=C2/CCC[C@]3(C)[C@@H]([C@H](C)CC[C@@H](O)[C@@]4(C)CO4)CC[C@@H]23)C[C@@H](O)C[C@@H]1O` registered a Receptor binding of 20. In the test on HL-60, this molecule registered an Activity of 12%.
